“Also recorded” adds a separate entry of the source.
Tests used:
[1] = biological target: T1, 17β-HSD3 (Homo sapiens, UniProt P37058); assay: 17β-HSD3 activity in intact transfected HEK-293 cells; format: cell-based
T1 construct: expressed in transfected cells; host or cells: HEK-293 (transient, calcium phosphate), intact cells
T1 sequence (P37058 1-310): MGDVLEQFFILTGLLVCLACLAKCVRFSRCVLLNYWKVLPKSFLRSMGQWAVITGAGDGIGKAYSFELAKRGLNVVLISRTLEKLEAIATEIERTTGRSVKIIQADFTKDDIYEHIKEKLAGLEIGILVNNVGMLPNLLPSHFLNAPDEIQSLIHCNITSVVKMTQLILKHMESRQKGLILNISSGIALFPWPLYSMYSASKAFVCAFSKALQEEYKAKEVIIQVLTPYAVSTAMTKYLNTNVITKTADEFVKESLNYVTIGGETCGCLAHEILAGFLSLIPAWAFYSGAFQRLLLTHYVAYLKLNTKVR
Description: (§1) Human embryonic kidney cells (HEK-293) were cultivated in DMEM containing 4.5 g/L glucose, 10% fetal bovine serum, 100 U/mL penicillin, 0.1 mg/mL streptomycin, 1× MEM nonessential amino acids, and 10 mM HEPES buffer, pH 7.4. The cells were incubated at 37 °C until 80% confluency. The cells were transfected using the calcium phosphate method with expression plasmids for 17β-HSD2 and 17β-HSD3. After 24 h, the cells were trypsinized and seeded on poly-L-lysine-coated 96-well plates (15 000 cells/well).
(§2) The inhibitory activities were measured 24 h after seeding as follows: old medium was aspirated and replaced by 30 μL of charcoal-treated DMEM (cDMEM). Ten microliters of inhibitor dissolved in cDMEM into the respective concentration was added, and mixtures were preincubated at 37 °C for 20 min. 17β-HSD2 inhibitory activities were measured in the presence of 190 nM unlabeled estradiol and 10 nM radiolabeled estradiol. N-(3-Methoxyphenyl)-N-methyl-5-m-tolylthiophene-2-carboxamide (compound 19 in ref ([26])) was used as positive control. The reaction mixtures were incubated for 20 min, and the reactions were stopped by adding an excess of estradiol and estrone (1:1, 2 mM in methanol) to the mixture.
17β-HSD3 inhibitory activities were measured in the presence of 190 nM unlabeled androstenedione and 10 nM radiolabeled androstenedione. Benzophenone-1 was used as positive control. The reaction mixtures were incubated for 30 min, and the reactions were stopped by adding an excess of androstenedione and testosterone (1:1, 2 mM in methanol). The steroids were separated by TLC, followed by scintillation counting and calculation of substrate concentration. Data was obtained from three independent measurements.

[2] = biological target: T2, 11β-HSD1 (Homo sapiens, UniProt P28845); assay: 11β-HSD1 activity in lysates of stably transfected cells; format: biochemical
T2 construct: expressed in transfected cells
T2 sequence (P28845 whole entry): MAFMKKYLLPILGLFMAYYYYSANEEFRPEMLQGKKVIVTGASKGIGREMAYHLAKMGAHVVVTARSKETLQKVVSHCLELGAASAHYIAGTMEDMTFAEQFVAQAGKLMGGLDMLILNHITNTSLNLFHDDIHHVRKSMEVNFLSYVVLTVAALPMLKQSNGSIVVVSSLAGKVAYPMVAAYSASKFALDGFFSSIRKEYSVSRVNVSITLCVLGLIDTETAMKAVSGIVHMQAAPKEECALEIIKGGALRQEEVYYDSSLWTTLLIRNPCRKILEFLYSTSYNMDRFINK
Description: The methods to determine 11β-HSD1 and -2 activity were performed as described previously.[64] Briefly, lysates of stably transfected cells, expressing either 11β-HSD1 or 11β-HSD2, were incubated for 10 min at 37 °C in TS2 buffer in a final volume of 22 μL containing either solvent (0.2% DMSO) or the inhibitor at the respective concentration. The nonselective 11β-HSD inhibitor glycyrrhetinic acid was used as positive control. Activity measurements of 11β-HSD1 were performed with 190 nM unlabeled cortisone, 10 nM radiolabeled cortisone, and 500 μM NADPH. To measure 11β-HSD2 activity, lysates were incubated with 40 nM unlabeled cortisol, 10 nM radiolabeled cortisol, and 500 μM NAD^+. Reactions were stopped after 10 min by adding an excess of unlabeled cortisone and cortisol (1:1, 2 mM in methanol). The steroids were separated by TLC, followed by scintillation counting and calculation of substrate concentration. Data were collected from at least three independent measurements.

[3] = biological target: T3, 17β-HSD2 (Homo sapiens, UniProt P37059); assay: 17β-HSD2 activity in intact transfected HEK-293 cells; format: cell-based; conditions: intact HEK-293 cells
T3 construct: expressed in transfected cells; host or cells: HEK-293 (transient, calcium phosphate), lysate
T3 sequence (P37059 1-387): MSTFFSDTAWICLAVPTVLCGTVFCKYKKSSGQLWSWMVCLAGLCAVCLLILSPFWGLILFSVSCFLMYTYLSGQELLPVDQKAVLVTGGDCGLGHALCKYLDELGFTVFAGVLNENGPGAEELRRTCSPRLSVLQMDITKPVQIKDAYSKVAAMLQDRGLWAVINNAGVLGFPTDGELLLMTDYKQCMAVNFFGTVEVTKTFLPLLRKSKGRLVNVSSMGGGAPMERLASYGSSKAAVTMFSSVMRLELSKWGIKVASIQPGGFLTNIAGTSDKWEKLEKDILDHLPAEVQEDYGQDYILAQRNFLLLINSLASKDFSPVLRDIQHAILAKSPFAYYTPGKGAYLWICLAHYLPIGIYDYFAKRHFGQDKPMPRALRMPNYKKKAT
Description: as §1, §2

[4] = biological target: T4, 17β-HSD1 (Homo sapiens, UniProt P14061); assay: 17β-HSD1 activity in HEK-293 cell lysates; format: biochemical; conditions: ratio of IC50 values
T4 construct: expressed in transfected cells; host or cells: HEK-293 (transient, calcium phosphate), lysate
T4 sequence (P14061 1-328): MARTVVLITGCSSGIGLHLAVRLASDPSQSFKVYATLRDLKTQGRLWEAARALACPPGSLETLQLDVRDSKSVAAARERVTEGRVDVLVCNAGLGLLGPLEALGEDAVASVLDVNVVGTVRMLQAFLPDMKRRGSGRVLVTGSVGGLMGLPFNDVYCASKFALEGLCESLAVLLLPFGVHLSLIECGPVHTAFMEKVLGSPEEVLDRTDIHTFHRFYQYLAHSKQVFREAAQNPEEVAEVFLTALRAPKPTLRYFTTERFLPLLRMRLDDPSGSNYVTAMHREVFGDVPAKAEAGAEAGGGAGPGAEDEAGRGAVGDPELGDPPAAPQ
Description: HEK-293 cells were transfected by the calcium phosphate precipitation method with plasmids for human 17β-HSD1, 17β-HSD2, or 11β-HSD2. Cells were cultivated for 48 h, washed with phosphate-buffered saline, and centrifuged for 4 min at 150g. After removal of the supernatants, cell pellets were snap frozen in dry ice and stored at −80 °C until further use.
Lysates of human embryonic kidney cells (HEK-293) expressing either 17β-HSD1 or 17β-HSD2 were incubated for 10 min at 37 °C in TS2 buffer in a final volume of 22 μL containing either solvent (0.2% DMSO/chloroform) or the inhibitor at the respective concentration. N-(3-Methoxyphenyl)-N-methyl-5-m-tolylthiophene-2-carboxamide (compound 19 in ref ([26])) and apigenin[50] were used as positive controls for 17β-HSD1 and 17β-HSD2, respectively, in all experiments. 17β-HSD1 activity was measured in the presence of 190 nM unlabeled estrone, 10 nM radiolabeled estrone, and 500 μM NADPH. In contrast, 17β-HSD2 activity was determined in the presence of 190 nM unlabeled estradiol, 10 nM radiolabeled estradiol, and 500 μM NAD^+. Reactions were stopped after 10 min by adding an excess of unlabeled estradiol and estrone (1:1, 2 mM in methanol). Possible promiscuous enzyme inhibition by aggregate formation of the chemicals was excluded by measuring the inhibition of the enzyme activity by the compounds in the presence of 0.1% Triton X-100.[36] […]

CC(C)(C)c1ccc(S(=O)(=O)Oc2ccccc2O)cc1 [Compound 12]
selectivity 17β-HSD3 against 17β-HSD2 ([1]; ratio of IC50 values): 35 fold
selectivity 11β-HSD1 against 17β-HSD2 ([2]; ratio of IC50 values): 9 fold
17β-HSD2 inhibition in intact cells (in words) [3]: concentration-dependently inhibited 17β-HSD2

Cc1cc(S(=O)(=O)Nc2cccc(O)c2)c(C)cc1Cl [Compound 22]
17β-HSD3 inhibition (in words) ([1]; intact cells): weak 17β-HSD3 inhibitors
selectivity: more active toward 17β-HSD2 than 17β-HSD1 [4]: 18 fold

COc1ccc(S(=O)(=O)Nc2ccc(O)c3c2CCCC3)cc1 [Compound 20]
17β-HSD3 intact inhibition class (n.i.) ([1]; rest activity at 20 μM, Table 3): n.i
11β-HSD1 versus 17β-HSD2 potency (in words) ([2]; lysates): almost equipotent toward 17β-HSD2 and 11β-HSD1; also recorded: equipotent 17β-HSD2 and 11β-HSD1 inhibitors
